Test results: publication PMC10463303 (Veterinary Research, 2023)
Converted amounts (≈) assume the structure as drawn. Peptide text beside a SMILES is read from it.

Legend:
Assay type in all cases: cell-based, Streptococcus suis serotype 2
Conditions in all cases: 18 h
SS2 strain P1/7 = test: Antimicrobial activity assay (broth microdilution MIC, MBC by colony counting)
Description: (§1) Tryptic soy broth (TSB; Beijing Land Bridge Technology Co., ltd, China) with 10% fetal bovine serum (FBS; Zhejiang Tianhang Biotechnology Co., ltd, China) were used as bacterial growth media for antimicrobial activity assays and tryptic soy agar (TSA; Beijing Land Bridge Technology Co., ltd, China) plates containing 10% FBS were used for the colony counting assay. Bacteria were cultured at 37 °C for 18 h in TSB or TSA agar plates.
(§2) Antimicrobial activity of cathelicidins was performed using a broth microdilution assay. Briefly, bacteria were maintained in TSB medium with 10% FBS at 37 °C and grown to mid-logarithmic growth phase before being tested. Then, 50 μL of peptides (0 to 80 μM) in triplicate were mixed with an equal volume of bacterial suspension (2 × 10^6 CFU/mL) in 96-well plates and incubated for 18 h at 37 ℃. The minimum inhibitory concentration (MIC) was defined as the lowest concentration of ones at which there was no visible bacteria growth. The minimum bactericidal concentration (MBC) was determined by colony counting. Fifty microliter mixed medium were removed from wells in which visible bacteria growth was not observed and then were plated out on TSA plates. After overnight culture at 37 °C, survival bacteria were counted.

SS2 strain SC19 = test system: SS2 strain SC19
Description: as §1, §2

[1] = test system: SS2 strains including SC19 and P1/7
Description: as §1, §2

[2] = broth microdilution, TSB + 10% FBS, peptides 0 to 80 μM in triplicate, bacterial suspension 2 × 10^6 CFU/mL, 37 °C, no visible growth

| MIC (anti-SS2 activity) [1] [µM] | SMILES | MBC toward P1/7 (SS2 strain P1/7) [µM] | MBC toward SC19 (SS2 strain SC19) [µM] | MBC (anti-SS2 activity) [1] [µM] | MIC toward P1/7 (SS2 strain P1/7; [2]) [µM] | MIC toward SC19 (SS2 strain SC19; [2]) [µM] |
| --- | --- | --- | --- | --- | --- | --- |
| 10 to 20 | CC[C@H](C)[C@H](NC(=O)[C@H](CCCCN)NC(=O)[C@H](CCCNC(=N)N)NC(=O)[C@H](CC(C)C)NC(=O)[C@H](Cc1ccccc1)NC(=O)[C@H](CCCNC(=N)N)NC(=O)CNC(=O)[C@H](Cc1ccccc1)NC(=O)[C@@H](N)CCCNC(=N)N)C(=O)N[C@@H](CCCNC(=N)N)C(=O)N[C@@H](CCCNC(=N)N)C(=O)N[C@@H](Cc1ccccc1)C(=O)N[C@@H](CCCNC(=N)N)C(=O)N1CCC[C@H]1C(=O)N[C@@H](CCCCN)C(=O)N[C@H](C(=O)N[C@H](C(=O)N[C@H](C(=O)N[C@H](C(=O)N[C@H](C(=O)N[C@@H](CCC(N)=O)C(=O)NCC(=O)N[C@@H](CO)C(=O)N[C@@H](C)C(=O)N[C@@H](CCCNC(=N)N)C(=O)N[C@@H](Cc1ccccc1)C(=O)O)[C@@H](C)CC)[C@@H](C)O)[C@@H](C)CC)[C@@H](C)O)C(C)C [CATH-2] (H-RFGRFLRKIRRFRPKVTITIQGSARF-OH) | 10 (≈ 32.1 µg/mL) | 20 (≈ 64.2 µg/mL) | 10 to 20 | – | – |
| 10 to 20 | CC[C@H](C)[C@H](NC(=O)CNC(=O)[C@H](C)NC(=O)[C@H](C)NC(=O)[C@@H](NC(=O)[C@@H](NC(=O)[C@H](CC(N)=O)NC(=O)[C@@H](NC(=O)[C@H](C)NC(=O)[C@@H](NC(=O)[C@@H]1CCCN1C(=O)[C@@H](NC(=O)[C@H](CC(C)C)NC(=O)[C@@H]1CCCN1C(=O)[C@H](Cc1c[nH]c2ccccc12)NC(=O)[C@H](Cc1ccccc1)NC(=O)[C@H](CCCNC(=N)N)NC(=O)[C@H](CCCCN)NC(=O)[C@@H](NC(=O)[C@@H](N)CCCNC(=N)N)C(C)C)C(C)C)C(C)C)[C@@H](C)CC)[C@@H](C)O)C(C)C)C(=O)N[C@@H](CC(N)=O)C(=O)N[C@@H](CC(C)C)C(=O)N[C@@H](Cc1ccc(O)cc1)C(=O)N[C@@H](CCCCN)C(=O)N[C@@H](C)C(=O)N[C@H](C(=O)N[C@@H](CCCNC(=N)N)C(=O)N[C@@H](CCCNC(=N)N)C(=O)N[C@@H](CCCCN)C(=O)O)[C@@H](C)CC [CATH-3] (H-RVKRFWPLVPVAINTVAAGINLYKAIRRK-OH) | 10 (≈ 33.5 µg/mL) | 20 (≈ 67 µg/mL) | 10 to 20 | – | – |
| > 40 | CC[C@H](C)[C@H](NC(=O)CNC(=O)[C@H](CC(N)=O)NC(=O)[C@H](CC(C)C)NC(=O)[C@H](Cc1c[nH]c2ccccc12)NC(=O)[C@H](CCC(=O)O)NC(=O)[C@H](Cc1c[nH]c2ccccc12)NC(=O)[C@@H](NC(=O)[C@H](CCCNC(=N)N)NC(=O)[C@@H](NC(=O)[C@H](Cc1c[nH]c2ccccc12)NC(=O)[C@H](Cc1c[nH]c2ccccc12)NC(=O)[C@H](CC(N)=O)NC(=O)[C@H](CCCNC(=N)N)NC(=O)[C@@H](NC(=O)[C@@H]1CCCN1)[C@@H](C)CC)[C@@H](C)CC)[C@@H](C)CC)C(=O)N[C@@H](CCCNC(=N)N)C(=O)N[C@@H](CCCCN)C(=O)N[C@@H](CCCNC(=N)N)C(=O)N[C@@H](CC(C)C)C(=O)N[C@@H](CCCNC(=N)N)C(=O)N[C@@H](CCC(N)=O)C(=O)N[C@@H](CCCNC(=N)N)C(=O)N[C@@H](CO)C(=O)N1CCC[C@H]1C(=O)N[C@@H](Cc1ccccc1)C(=O)N[C@@H](Cc1ccc(O)cc1)C(=O)N[C@H](C(=O)N[C@@H](CCCNC(=N)N)C(=O)NCC(=O)N[C@@H](Cc1c[nH]cn1)C(=O)N[C@@H](CC(C)C)C(=O)N[C@@H](CC(N)=O)C(=O)N[C@H](C(=O)N[C@H](C(=O)N[C@@H](CO)C(=O)N[C@H](C(=O)N1CCC[C@H]1C(=O)N[C@@H](CCC(N)=O)C(=O)N1CCC[C@H]1C(=O)O)[C@@H](C)O)[C@@H](C)O)C(C)C)C(C)C [CATH-B1] (H-PIRNWWIRIWEWLNGIRKRLRQRSPFYVRGHLNVTSTPQP-OH) | > 40 | > 40 | > 40 | – | – |
| > 40 | CC[C@H](C)[C@H](NC(=O)[C@H](CCCCN)NC(=O)[C@H](CCCCN)NC(=O)[C@H](CC(C)C)NC(=O)[C@H](CCCNC(=N)N)NC(=O)[C@H](CCCCN)NC(=O)[C@H](CCCNC(=N)N)NC(=O)[C@@H](NC(=O)[C@H](CCCCN)NC(=O)[C@H](CCCCN)NC(=O)[C@H](CCCNC(=N)N)NC(=O)[C@H](CC(C)C)NC(=O)[C@H](CCCNC(=N)N)NC(=O)[C@H](CCCNC(=N)N)NC(=O)[C@H](Cc1ccccc1)NC(=O)[C@H](CCCNC(=N)N)NC(=O)CN)[C@@H](C)O)C(=O)NCC(=O)N[C@@H](CCCCN)C(=O)N[C@H](C(=O)N[C@@H](CC(C)C)C(=O)N[C@@H](CCCCN)C(=O)N[C@@H](Cc1c[nH]c2ccccc12)C(=O)N[C@H](C(=O)N1CCC[C@H]1C(=O)N1CCC[C@H]1C(=O)N[C@H](C(=O)N[C@H](C(=O)NCC(=O)N[C@@H](CO)C(=O)N[C@H](C(=O)N1CCC[C@H]1C(=O)N[C@@H](CC(C)C)C(=O)NCC(=O)N[C@@H](CS)C(=O)NCC(=O)O)[C@@H](C)CC)C(C)C)[C@@H](C)CC)[C@@H](C)CC)C(C)C [PMAP-36] (H-GRFRRLRKKTRKRLKKIGKVLKWIPPIVGSIPLGCG-OH) | > 40 | 40 (≈ 166 µg/mL) | > 40 | – | – |
| > 40 | CC[C@H](C)[C@H](NC(=O)[C@H](CCCNC(=N)N)NC(=O)[C@@H]1CCCN1C(=O)[C@@H]1CCCN1C(=O)[C@H](CC(C)C)NC(=O)[C@H](CCCNC(=N)N)NC(=O)[C@@H]1CCCN1C(=O)[C@@H]1CCCN1C(=O)[C@H](Cc1ccccc1)NC(=O)[C@H](Cc1ccccc1)NC(=O)[C@@H]1CCCN1C(=O)[C@@H]1CCCN1C(=O)[C@@H]1CCCN1C(=O)[C@H](CCCNC(=N)N)NC(=O)[C@@H]1CCCN1C(=O)[C@H](CCCNC(=N)N)NC(=O)[C@@H]1CCCN1C(=O)[C@H](CC(C)C)NC(=O)[C@H](Cc1ccc(O)cc1)NC(=O)[C@@H]1CCCN1C(=O)[C@@H]1CCCN1C(=O)[C@H](CCCNC(=N)N)NC(=O)[C@@H]1CCCN1C(=O)[C@H](CCCNC(=N)N)NC(=O)[C@H](CCCNC(=N)N)NC(=O)[C@@H](N)CCCNC(=N)N)C(=O)N1CCC[C@H]1C(=O)N1CCC[C@H]1C(=O)NCC(=O)N[C@@H](Cc1ccccc1)C(=O)N1CCC[C@H]1C(=O)N1CCC[C@H]1C(=O)N[C@@H](CCCNC(=N)N)C(=O)N[C@@H](Cc1ccccc1)C(=O)N1CCC[C@H]1C(=O)N1CCC[C@H]1C(=O)N[C@@H](CCCNC(=N)N)C(=O)N[C@@H](Cc1ccccc1)C(=O)N1CCC[C@H]1C(=O)O [PR-39] (H-RRRPRPPYLPRPRPPPFFPPRLPPRIPPGFPPRFPPRFP-OH) | > 40 | > 40 | > 40 | – | – |

| SMILES | MIC (anti-SS2 activity) [1] [µM] | MBC toward P1/7 (SS2 strain P1/7) [µM] | MBC toward SC19 (SS2 strain SC19) [µM] | MBC (anti-SS2 activity) [1] [µM] | MIC toward P1/7 (SS2 strain P1/7; [2]) [µM] | MIC toward SC19 (SS2 strain SC19; [2]) [µM] |
| --- | --- | --- | --- | --- | --- | --- |
| CC[C@H](C)[C@H](NC(=O)[C@H](CCCCN)NC(=O)[C@H](CCC(=O)O)NC(=O)CNC(=O)CNC(=O)[C@H](CCCCN)NC(=O)[C@H](CCCNC(=N)N)NC(=O)[C@H](CC(C)C)NC(=O)[C@H](CC(C)C)NC(=O)CN)C(=O)NCC(=O)N[C@@H](CCC(=O)O)C(=O)N[C@@H](CCCCN)C(=O)N[C@@H](CC(C)C)C(=O)N[C@@H](CCCCN)C(=O)N[C@@H](CCCCN)C(=O)N[C@H](C(=O)NCC(=O)N[C@@H](CCC(N)=O)C(=O)N[C@@H](CCCCN)C(=O)N[C@H](C(=O)N[C@@H](CCCCN)C(=O)N[C@@H](CC(N)=O)C(=O)N[C@@H](Cc1ccccc1)C(=O)N[C@@H](Cc1ccccc1)C(=O)N[C@@H](CCC(N)=O)C(=O)N[C@@H](CCCCN)C(=O)N[C@@H](CC(C)C)C(=O)N[C@H](C(=O)N1CCC[C@H]1C(=O)N[C@@H](CCC(N)=O)C(=O)N1CCC[C@H]1C(=O)N[C@@H](CCC(=O)O)C(=O)N[C@@H](CCC(N)=O)C(=O)O)C(C)C)[C@@H](C)CC)[C@@H](C)CC [CRAMP] (H-GLLRKGGEKIGEKLKKIGQKIKNFFQKLVPQPEQ-OH) | > 40 | > 40 | > 40 | > 40 | 40 | 40 |
